Laboratory results from patent publication US20230165865A1, “HETEROARYLDIHYDROPYRIMIDINE DERIVATIVES AND METHODS OF TREATING HEPATITIS B INFECTIONS” (Janssen Pharmaceutica NV, priority 2018, published 2023).
Where two headings read alike, the source gives them in different places.

What was measured:
[1] = tested on: cryopreserved human hepatocytes; assay: Cell viability assessment in CYP induction study (CellTiter-Fluor); assay type: cell-based; conditions: donor 1, 10 μM, 72 hours
Procedure: Preparation and Plating of Human Hepatocytes • 1. The cryopreserved human hepatocytes were thawed in 37° C. water bath and diluted by plating medium to a seeding density of 0.55×10^6 cells/mL. • 2. Transfer 100 μL to each well of collagen I coated 96-well plate. Place plate(s) in incubator and incubate at 37° C. for 4-6 hours. • 3. After incubation, observe cell morphology, agitate plate(s) to loosen debris, and replace medium. Place plate in incubator and incubate for 18 hours.
Incubation with Test Compound(s) • 1. Prepare dilute test compound and positive control inducers with 37° C. prepared incubation medium to respective working concentrations (Table 11). Final concentration of DMSO in the treatment group will be 0.1%. Prepare 25 mM chlorpromazine in DMSO and dilute 1000-fold with incubation medium as a cytotoxicity control.
• 2. Remove the Hepatocyte plate from the incubator. Observe cell morphology. Replace the medium in the appropriate wells with 125 μL of the toxicity controls, DMSO controls, inducers, or test article solutions, each in triplicate. • 3. After 24 hours and 48 hours, remove the Hepatocyte plate from the incubator and observe cell morphology. Renew the medium with test articles that freshly diluted from DMSO stocks. […]
After 72 hours of treatment, warm the incubation medium to 37° C. […] Cell viability was assessed by CellTiter-Fluor™ Cell Viability Assay kit. […]

[2] = Pharmacokinetic and tissue distribution study via intravenous and oral administration in male C57BL/6 mice; assay type: in vivo; conditions: for Kp / clearance / Cmax: male, C57BL/6, mouse; for Kp: liver and plasma, po; for Kp / Cmax / Liver AUCinf/Dose / Liver Cmax/Dose / PO AUCinf/Dose: PO; for clearance / IV AUCinf/Dose: IV, nominal 2 mg/kg; for clearance: read-out: IV Cl; for Cmax: dose per compound in table (5.28-9.95 mg/kg); for F: PO vs IV
Procedure: Male C57BL/6 mice with a weight range of 20-25 g (Hua Fu Kang, China) were used. Animals were fasted overnight and free access to food 4 hours after dosing.
Test compound (correction factor: 1.00) was dissolved in a 20% hydroxypropyl-β-cyclodextrin (HP-β-CD) at a final concentration of 1 mg/ml for the intravenous (IV) formulation and at final concentrations of 0.5 mg/ml for the oral (PO) formulation. The intravenous formulation was dosed at 2 ml/kg to obtain a dose of 2 mg/kg. The oral formulations were dosed at 10 ml/kg to obtain final doses of 5 mg/kg.
Blood samples were taken at 7 and 20 min, 1, 2, 4, 8 and 24 h after intravenous dose administration. Blood and liver samples were taken at 30 min, 1, 2, 4, 8, 12 and 24 h after oral dose administration.
Approximately 0.020 mL blood will be collected into BD blood collection tubes containing K3-EDTA at each time point. Samples were placed immediately on melting ice and plasma was obtained following centrifugation at 4° C. for 5 minutes at approximately 4000×g. Plasma samples were adjusted to pH 3-4 by phosphoric acid and stored at −75±15° C. prior to analysis. The whole process was completed within 1 hour.
Liver samples were collected at adopted time point, and the vial containing the tissues sample was snap-frozen in liquid nitrogen right away and kept at −75±15° C. prior to analysis. All liver samples were weighed and homogenized with phosphoric acid solution (pH to 3-4) by liver weight (g) to phosphoric acid solution volume (mL) ratio 1:4 before analysis.
Plasma and liver samples were analyzed using LC-MS/MS methods. The lower limit of quantification (LLOQ) for plasma was 1.0 ng/ml and for liver was 2.5 ng/g. A non-compartmental analysis using the “Linear up log down” rule was used for all data. A limited pharmacokinetic analysis was performed using Phoenix™ Professional (Version 6.1).

[3] = Cytotoxicity determination in HepG2.2.15 cells (CCK-8 assay); assay type: cell-based; conditions: human, 6 days treatment, CCK-8, highest concentration 100 uM
Method in brief: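 HepG2.2.15 cells (5,000/well, 2% FBS medium) were treated for 6 days, with medium and compound refreshed at day 3. Dosing was an 8-point 1:3 series from 100 uM, in triplicate. Viability was measured by CCK-8 after 2.5 h at 37 °C (A450, 630 nm reference), and CC50 was calculated.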

human hepatocytes = assay: Metabolic stability of test compound in human hepatocyte cell; assay type: in vitro ADME; conditions: comparing with reference 1 and reference 2
Method in brief: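 Compounds at 1.0 μM were incubated at 37 °C with cryopreserved human hepatocytes (1×10^6 viable cells/mL) and sampled from 0 to 120 min into cold acetonitrile, then analysed by LC-MS/MS. Half-life came from regression of parent disappearance over time. It was converted to CLint (μL/min/10^6 cells) and to scaled liver CLint (mL/min/kg).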

[4] = mice, read-out: AUCInf Ratio (Liver/Plasma)
[5] = mice, read-out: Cmax Ratio (Liver/Plasma)

| SMILES | Cell viability [1] | Kp [2, 4] | Kp [2, 5] | clearance ([2]; mice plasma) | Cmax ([2]; mice plasma) | Liver AUCinf/Dose ([2]; mice liver) | Liver Cmax/Dose ([2]; mice liver) | dose-normalized Cmax and dose-normalized AUCinf in liver, in words ([2]; mice liver, comparing with reference 1 and reference 2) | IV AUCinf/Dose ([2]; mice plasma) | PO AUCinf/Dose ([2]; mice plasma) | clearance, in words ([2]; mice plasma, comparing with reference 1 and reference 2) | F ([2]; mice) | bioavailability in plasma, in words ([2]; mice, comparing with reference 1 and reference 2) | CC50 at 6 days [3] | metabolic stability in human hepatocyte cells, in words (human hepatocytes) |
| --- | --- | --- | --- | --- | --- | --- | --- | --- | --- | --- | --- | --- | --- | --- | --- |
| CCOC(=O)C1=C(CN2CCN3C(=S)N(CC(C)(C)C(=O)O)CC3C2)NC(c2nccs2)=N[C@H]1c1cccc(F)c1C (single isomer, unassigned) [Compound 1A] | 95% | 17.5 | 14 | 16.6 mL/min/kg | 2350 ng/mL | 13733 ng·kg·h/g/mg | 6225 kg·ng/mg/mL | far increased | 1078.3 ng·kg·h/mg/mL | 784.8 ng·kg·h/mg/mL | far slower clearance | 72.9% | increased bioavailability | 22.5 µM | improved metabolic stability |
| CCOC(=O)C1=C(CN2CCN3C(=O)N(CC(C)(C)C(=O)O)C[C@@H]3C2)NC(c2nccs2)=N[C@H]1c1cccc(F)c1C [Reference 2, reference compound] | 117% | 15.9 | 12.2 | 49.1 mL/min/kg | 733 ng/mL | 2894 ng·kg·h/g/mg | 1676 kg·ng/mg/mL |  | 345.2 ng·kg·h/mg/mL | 181.5 ng·kg·h/mg/mL |  | 52.7% |  |  |  |
